Assay results from ChEMBL document CHEMBL3621069 (Bioorg Med Chem Lett, 2015).

Columns and labels:
[1] = Terminal half life in Sprague-Dawley rat at 10 mg/kg, po; type: ADME, organism-based; settings: in vivo, read-out: beta t1/2 (converted)
Salmonella typhimurium [2] = test: Mutagenicity in Salmonella typhimurium TA1537 at 5000 µg/plate in absence of liver S9 fraction by Ames test; type: toxicity, organism-based; settings: salmonella enterica subsp. enterica serovar typhimurium
Escherichia coli [3] = test: Mutagenicity in Escherichia coli WP2 uvrA at 5000 µg/plate in presence of liver S9 fraction by Ames test; type: toxicity, organism-based
Salmonella typhimurium [4] = test: Mutagenicity in Salmonella typhimurium TA1535 at 5000 µg/plate in presence of liver S9 fraction by Ames test; type: toxicity, organism-based; settings: salmonella enterica subsp. enterica serovar typhimurium
[5] = biological target: T1, Tyrosine-protein kinase ZAP-70 (Homo sapiens, UniProt P43403); test: Inhibition of purified full-length human ZAP70 pre-incubated for 30 mins at room temperature before UlighTM-PolyGT peptide substrate addition and measured 1 hr after substrate addition by cell free kinase assay
T1 sequence (P43403 whole entry): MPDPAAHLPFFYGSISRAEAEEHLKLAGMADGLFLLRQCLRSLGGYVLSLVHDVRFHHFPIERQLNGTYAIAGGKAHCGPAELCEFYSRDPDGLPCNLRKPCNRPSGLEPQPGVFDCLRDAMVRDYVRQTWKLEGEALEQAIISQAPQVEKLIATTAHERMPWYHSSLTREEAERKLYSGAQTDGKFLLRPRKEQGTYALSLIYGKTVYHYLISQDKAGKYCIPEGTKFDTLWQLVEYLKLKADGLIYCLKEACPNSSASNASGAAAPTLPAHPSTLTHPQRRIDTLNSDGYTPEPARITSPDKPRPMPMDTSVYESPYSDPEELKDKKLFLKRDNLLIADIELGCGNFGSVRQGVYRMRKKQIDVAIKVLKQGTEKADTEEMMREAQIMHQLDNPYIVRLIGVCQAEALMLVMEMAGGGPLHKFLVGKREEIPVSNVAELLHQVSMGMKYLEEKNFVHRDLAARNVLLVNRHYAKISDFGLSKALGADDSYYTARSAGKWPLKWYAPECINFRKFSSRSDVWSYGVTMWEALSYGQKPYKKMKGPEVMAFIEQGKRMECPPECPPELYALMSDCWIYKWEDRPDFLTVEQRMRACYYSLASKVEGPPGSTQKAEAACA

Salmonella typhimurium [6] = test: Mutagenicity in Salmonella typhimurium TA1535 at 5000 µg/plate in absence of liver S9 fraction by Ames test; type: toxicity, organism-based; settings: salmonella enterica subsp. enterica serovar typhimurium
Salmonella typhimurium [7] = test: Genotoxicity in Salmonella typhimurium TA1535 at 5000 µg/plate in absence of liver S9 fraction by Ames test; type: toxicity, organism-based; settings: salmonella enterica subsp. enterica serovar typhimurium
[8] = biological target: T2, Tyrosine-protein kinase JAK3 (Homo sapiens, UniProt P52333); test: Inhibition of JAK3 (unknown origin) pre-incubated for 30 mins at room temperature before substrate addition and measured 1 hr after substrate addition by cell free kinase assay
T2 sequence (P52333 whole entry): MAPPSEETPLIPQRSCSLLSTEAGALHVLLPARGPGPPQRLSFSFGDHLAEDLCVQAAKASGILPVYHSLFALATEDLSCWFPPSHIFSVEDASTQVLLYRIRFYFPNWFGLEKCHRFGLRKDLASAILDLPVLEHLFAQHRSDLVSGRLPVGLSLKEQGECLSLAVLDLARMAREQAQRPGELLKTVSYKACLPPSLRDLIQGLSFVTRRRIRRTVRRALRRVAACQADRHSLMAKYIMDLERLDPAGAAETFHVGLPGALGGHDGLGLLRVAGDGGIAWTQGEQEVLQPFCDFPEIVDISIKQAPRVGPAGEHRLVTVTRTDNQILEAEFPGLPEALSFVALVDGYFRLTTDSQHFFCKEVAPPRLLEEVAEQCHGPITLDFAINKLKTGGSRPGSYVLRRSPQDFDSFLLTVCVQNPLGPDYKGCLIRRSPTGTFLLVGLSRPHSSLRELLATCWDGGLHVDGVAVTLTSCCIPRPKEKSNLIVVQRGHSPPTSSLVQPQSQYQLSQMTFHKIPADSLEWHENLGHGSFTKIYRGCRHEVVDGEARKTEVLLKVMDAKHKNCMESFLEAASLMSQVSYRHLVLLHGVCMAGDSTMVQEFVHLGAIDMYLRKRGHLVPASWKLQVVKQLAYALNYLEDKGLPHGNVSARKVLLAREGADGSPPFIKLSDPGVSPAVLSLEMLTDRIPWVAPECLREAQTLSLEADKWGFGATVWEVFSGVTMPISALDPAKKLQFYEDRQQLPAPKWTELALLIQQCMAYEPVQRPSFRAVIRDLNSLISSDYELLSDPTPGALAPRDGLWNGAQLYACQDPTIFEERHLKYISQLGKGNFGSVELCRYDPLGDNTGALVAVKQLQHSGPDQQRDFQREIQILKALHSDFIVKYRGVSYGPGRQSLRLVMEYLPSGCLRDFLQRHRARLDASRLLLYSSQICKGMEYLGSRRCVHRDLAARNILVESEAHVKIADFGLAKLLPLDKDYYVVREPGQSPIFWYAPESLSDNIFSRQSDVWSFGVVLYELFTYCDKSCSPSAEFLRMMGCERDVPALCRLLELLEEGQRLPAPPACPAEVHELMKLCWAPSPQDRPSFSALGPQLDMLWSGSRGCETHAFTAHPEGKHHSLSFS

Salmonella typhimurium [9] = test: Genotoxicity in Salmonella typhimurium TA1535 at 5000 µg/plate in presence of liver S9 fraction by Ames test; type: toxicity, organism-based; settings: salmonella enterica subsp. enterica serovar typhimurium
Salmonella typhimurium [10] = test: Genotoxicity in Salmonella typhimurium TA1537 at 5000 µg/plate in presence of liver S9 fraction by Ames test; type: toxicity, organism-based; settings: salmonella enterica subsp. enterica serovar typhimurium
[11] = Apparent permeability from apical to basolateral side in human Caco2 cells; type: ADME, cell-based; settings: Caco-2
Salmonella typhimurium [12] = test: Genotoxicity in Salmonella typhimurium TA100 at 5000 µg/plate in absence of liver S9 fraction by Ames test; type: toxicity, organism-based; settings: salmonella enterica subsp. enterica serovar typhimurium
Salmonella typhimurium [13] = test: Mutagenicity in Salmonella typhimurium TA98 at 5000 µg/plate in absence of liver S9 fraction by Ames test; type: toxicity, organism-based; settings: salmonella enterica subsp. enterica serovar typhimurium
[14] = Inhibition of CYP450 (unknown origin); type: ADME, Homo sapiens
Salmonella typhimurium [15] = test: Genotoxicity in Salmonella typhimurium TA98 at 5000 µg/plate in presence of liver S9 fraction by Ames test; type: toxicity, organism-based; settings: salmonella enterica subsp. enterica serovar typhimurium
Salmonella typhimurium [16] = test: Mutagenicity in Salmonella typhimurium TA98 at 5000 µg/plate in presence of liver S9 fraction by Ames test; type: toxicity, organism-based; settings: salmonella enterica subsp. enterica serovar typhimurium
Escherichia coli [17] = test: Genotoxicity in Escherichia coli WP2 uvrA at 5000 µg/plate in presence of liver S9 fraction by Ames test; type: toxicity, organism-based
Escherichia coli [18] = test: Mutagenicity in Escherichia coli WP2 uvrA at 5000 µg/plate in absence of liver S9 fraction by Ames test; type: toxicity, organism-based
[19] = Clearance in Sprague-Dawley rat at 10 mg/kg, po; type: ADME, organism-based; settings: in vivo
[20] = Stability in human liver microsomes; type: ADME; settings: read-out: Stability
Plasma = test: Unbound fraction in human plasma; type: ADME, cell-free
Salmonella typhimurium [21] = test: Genotoxicity in Salmonella typhimurium TA100 at 5000 µg/plate in presence of liver S9 fraction by Ames test; type: toxicity, organism-based; settings: salmonella enterica subsp. enterica serovar typhimurium
Aurora kinase B = Aurora kinase B (Homo sapiens, UniProt Q96GD4); test: Inhibition of Aurora B kinase (unknown origin) pre-incubated for 30 mins at room temperature before substrate addition and measured 1 hr after substrate addition by cell free kinase assay
Chain of Aurora kinase B (Q96GD4 whole entry): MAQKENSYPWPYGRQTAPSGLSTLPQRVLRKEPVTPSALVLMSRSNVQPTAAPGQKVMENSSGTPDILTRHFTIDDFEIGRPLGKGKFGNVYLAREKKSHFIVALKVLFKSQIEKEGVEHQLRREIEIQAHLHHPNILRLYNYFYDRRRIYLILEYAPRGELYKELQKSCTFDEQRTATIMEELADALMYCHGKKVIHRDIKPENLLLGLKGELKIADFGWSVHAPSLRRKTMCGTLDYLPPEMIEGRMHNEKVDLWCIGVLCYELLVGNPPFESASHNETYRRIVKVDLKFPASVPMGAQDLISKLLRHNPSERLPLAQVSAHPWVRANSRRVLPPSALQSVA

| Compound | half-life [1] | Activity (Salmonella typhimurium [2]) | Activity (Escherichia coli [3]) | Activity (Salmonella typhimurium [4]) | IC50 [5] | Activity (Salmonella typhimurium [6]) | Activity (Salmonella typhimurium [7]) | IC50 [8] | Activity (Salmonella typhimurium [9]) | Activity (Salmonella typhimurium [10]) | Papp A→B [11] | Activity (Salmonella typhimurium [12]) | Activity (Salmonella typhimurium [13]) | IC50 [14] | Activity (Salmonella typhimurium [15]) | Activity (Salmonella typhimurium [16]) | Activity (Escherichia coli [17]) | Activity (Escherichia coli [18]) | CL/F [19] | half-life [20] | other results |
| --- | --- | --- | --- | --- | --- | --- | --- | --- | --- | --- | --- | --- | --- | --- | --- | --- | --- | --- | --- | --- | --- |
| Cc1nn(-c2ccnc(Nc3ccc4c(c3)c(Cl)c(C)n4C)n2)cc1CN1CC(O)C1 | 3.6 h | Non-toxic | Non-toxic | Non-toxic | 53.8 µM | Non-toxic | Non-toxic | 0.0781 µM | Non-toxic | Non-toxic | 2.7 ×10⁻⁶ cm/s | Non-toxic | Non-toxic | > 10 µM | Non-toxic | Non-toxic | Non-toxic | Non-toxic | 26 mL/min/kg | > 1 h | Fu (Plasma): < 0.4%; Activity (Salmonella typhimurium [21]): Non-toxic; IC50 (Aurora kinase B): 1.71 µM |
| Cc1nn(-c2ccnc(Nc3ccc4c(c3)c(C)c(C)n4C)n2)cc1CN1CC(O)C1 | 3.4 h | Non-toxic | Non-toxic | Non-toxic | 996 µM | Non-toxic | Non-toxic | 0.418 µM | Non-toxic | Non-toxic | 6.2 ×10⁻⁶ cm/s | Non-toxic | Non-toxic | > 10 µM | Non-toxic | Non-toxic | Non-toxic | Non-toxic | 21 mL/min/kg | > 1 h | Fu (Plasma): < 0.4%; Activity (Salmonella typhimurium [21]): Non-toxic; IC50 (Aurora kinase B): 0.985 µM |
